Patent US20240373846A1, “Herbicidal Compositions” (SYNGENTA CROP PROTECTION AG, priority 2021, published 2024)

Columns and labels:
Test in all cases: Post-emergence efficacy
Type in all cases: in vivo
[1] = tested on: Digitaria insularis (TRCIN); details: 100=total damage to plant, 0=no damage
Text: (§1) When active ingredients are combined, the activity to be expected (E) for any given active ingredient combination obeys the so-called Colby Formula and can be calculated as follows (Colby, S. R., Calculating synergistic and antagonistic responses of herbicide combination, Weeds, Vol. 15, pages 20-22; 1967): • ppm=milligrams of active ingredient (a.i.) per litre • X=% action by first active ingredient using p ppm of the active ingredient • Y=% action by second active ingredient sing q ppm of the active ingredient.
(§2) According to Colby, the expected action of active ingredients A+B using p+q ppm of active ingredient is represented by the following formula: […]
(§3) If the action actually observed (O) is greater than the expected action E then the action of the combination is super-additive, i.e. there is a synergistic effect. In mathematical terms, synergism corresponds to a positive value for the difference of (O−E). In the case of purely complementary addition of activities (expected activity), said difference (O−E) is zero. A negative value of said difference (O−E) signals a loss of activity compared to the expected activity.
(§4) The efficacy of various compositions of the present invention were tested against plants including the following species: Amaranthus retroflexus (AMARE), Echinochloa crus-gali (ECHCG), Lolium multiflorum (LOLMU), Setaria faberi (SETFA), and Digitaria insularis (TRCIN). The compositions are applied post-emergence, and the tests evaluated at certain days-after-application (DAA) as indicated. The tests were evaluated (100=total damage to plant; 0=no damage to plant), and the results are shown below in tables B1 to B11 below.

[2] = tested on: Amaranthus retroflexus (AMARE); details: 100=total damage to plant, 0=no damage
Text: as §1, §2, §3, §4

[3] = tested on: Echinochloa crus-gali (ECHCG); details: 100=total damage to plant, 0=no damage
Text: as §1, §2, §3, §4

Setaria faberi (SETFA) = details: Table B8, 13 DAA, 100=total damage to plant, 0=no damage
Text: as §1, §2, §3, §4

[4] = tested on: Lolium multiflorum (LOLMU); details: Table B11, 15DAA, 100=total damage to plant, 0=no damage
Text: as §1, §2, §3, §4

COc1ccc(-n2c(=O)c(C(=O)C3C(=O)CCCC3=O)nc3c(Cl)cccc32)cc1 [Formula B1d, fenquinotrione]
Observed ([1]; Table B2, 16DAA, 500 g/ha): 35 | Observed ([1]; Table B2, 16DAA, 1000 g/ha): 43

CS(=O)(=O)c1ccc(C(=O)C2C(=O)CCCC2=O)c([N+](=O)[O-])c1 [Formula B1f, mesotrione]
Observed ([2]; Table B3, 13 DAA, 3.75 g/ha): 18

CCOCN(C(=O)CCl)c1c(C)cccc1CC [Formula B2a, acetochlor]
Observed ([3]; Table B4, 15DAA, 4000 g/ha): 50

Cn1nc(C(F)(F)F)c(CS(=O)(=O)C2=NOC(C)(C)C2)c1OC(F)F [Formula B2d, pyroxasulfone]
Observed ([3]; Table B5, 15DAA, 125 g/ha): 38 | Observed ([3]; Table B5, 15DAA, 250 g/ha): 35

CCOC(=O)c1ccccc1S(=O)(=O)NC(=O)Nc1nc(Cl)cc(OC)n1 [Formula B3c, chlorimuron-ethyl]
Observed ([2]; Table B6, 13DAA, 1.88 g/ha): 88 | Observed ([2]; Table B6, 13DAA, 7.5 g/ha): 83

CCc1cnc(C2=NC(C)(C(C)C)C(=O)N2)c(C(=O)O)c1 (stereo not shown) [Formula B3j, imazethapyr]
Observed ([1]; Table B7, 16DAA, 8 g/ha): 30 | Observed ([1]; Table B7, 16DAA, 15 g/ha): 53

COc1cc(OC)nc(NC(=O)NS(=O)(=O)c2ncccc2C(=O)N(C)C)n1 [Formula B3m, nicosulfuron]
Observed (Setaria faberi (SETFA); 0.94 g/ha): 0 | Observed (Setaria faberi (SETFA); 1.88 g/ha): 0 | Observed (Setaria faberi (SETFA); 3.75 g/ha): 0

CCNc1nc(Cl)nc(NC(C)C)n1 [Formula B4c, atrazine]
Observed ([3]; Table B9, 20DAA, 500 g/ha): 60

CSc1nnc(C(C)(C)C)c(=O)n1N [Formula B4g, metribuzin]
Observed ([2]; Table B10, 13 DAA, 7.5 g/ha): 0

FC(F)c1cc(-c2c(Cl)cccc2Oc2ncc(Cl)cn2)on1 [Formula B5d, rimisoxafen]
Observed ([4]; 30 g/ha): 18

CC#Cc1ccc(C2=C(OC(=O)OC)C3CCC(C3)C2=O)c(OC)c1 (stereo not shown) [Formula Ic]
Observed (Setaria faberi (SETFA); 0.47 g/ha): 3 | Observed (Setaria faberi (SETFA); 0.94 g/ha): 0 | Observed (Setaria faberi (SETFA); 1.88 g/ha): 0 | Observed ([4]; 12.5 g/ha): 60 | Observed ([2]; Table B1, 13 DAA, 0.47 g/ha): 0 | Observed ([2]; Table B1, 13 DAA, 0.94 g/ha): 0 | Observed ([2]; Table B3, 13 DAA, 0.47 g/ha): 10 | Observed ([2]; Table B3, 13 DAA, 0.94 g/ha): 0 | Observed ([2]; Table B6, 13DAA, 1.88 g/ha): 7.5 | Observed ([2]; Table B10, 13 DAA, 0.47 g/ha): 10 | Observed ([2]; Table B10, 13 DAA, 0.94 g/ha): 0 | Observed ([2]; Table B10, 13 DAA, 1.88 g/ha): 0 | Observed ([1]; Table B7, 16DAA, 3.125 g/ha): 15

bicyclopyrone [Formula B1b]
Observed ([2]; Table B1, 13 DAA, 0.94 g/ha): 23 | Observed ([2]; Table B1, 13 DAA, 1.88 g/ha): 45
